# Experimental data published in patent US20240207374A1, “LIPID NANOPARTICLES CONTAINING POLYNUCLEOTIDES ENCODING GLUCOSE-6-PHOSPHATASE AND USES THEREOF” (ModernaTX, Inc., priority 2021, published 2024).
# Test: Residual parent lipid levels in the liver of mice (hEPO mRNA LNP)
# Assay type: in vivo
# Details: CD-1 mice
row,SMILES,Parent Lipid Remaining at 24 h
1,CCCCCCCCC(CCCCCCCC)OC(=O)CCCCCCCN(CCO)CCCCCCCC(=O)OCCC(CCCC)CCCCCC (stereo not shown) [Compound 7],0.3 ± 0.2 nmol/g liver tissue
2,CCCCCCCCC(CCCCCCCC)COC(=O)CCCCCN(CCCCCCCC(=O)OC(CC)CCCCCCCC)CCCNc1c(NC)c(=O)c1=O (stereo not shown) [Compound 14],56 ± 6 nmol/g liver tissue
3,CCCCCCCCC(CCCCCC)COC(=O)CCCCCN(CCCCCCCC(=O)OC(CC)CCCCCCCC)CCCNc1c(NC)c(=O)c1=O (stereo not shown) [Compound 15],51 ± 4 nmol/g liver tissue
4,CCCCCCCCC(CCCCCCCC)OC(=O)CCCCCCCN(CCCCCCCC(=O)OCC(CCCCC)CCCCCCC)CCCNc1c(NC)c(=O)c1=O (stereo not shown) [Compound 16],77 ± 3 nmol/g liver tissue
5,CCCCCCCCC(CCCCCCCC)OC(=O)CCCCCCCN(CCCCCCCC(=O)OCCC(CCCCCC)C(C)C)CCCNc1c(NC)c(=O)c1=O (stereo not shown) [Compound 17],35 ± 5 nmol/g liver tissue
6,CCCCCCCCC(CCCCCCCC)OC(=O)CCCCCCCN(CCCCCCCC(=O)OCC(CCCCCCC)C(C)C)CCCNc1c(NC)c(=O)c1=O (stereo not shown) [Compound 19],73 ± 6 nmol/g liver tissue
7,CCCCCCCCC(CCCCCCCC)OC(=O)CCCCCCCN(CCCCCCCC(=O)OCCC(CCCC)CCCCCC)CCCNc1c(NC)c(=O)c1=O (stereo not shown) [Compound 20],65 ± 5 nmol/g liver tissue
8,"CCCCCCCCC(CCCCCCCC)OC(=O)CCCCCCCN(CCO)CCCCCCCC(=O)OCCC(CCCC)CCCC [Compound 22, 3-Butylheptyl 8-((8-(heptadecan-9-yloxy)-8-oxooctyl)(2-hydroxyethyl)amino)octanoate]",<0.1 nmol/g liver tissue
9,CCCCCCC(CCCCCC)CCOC(=O)CCCCCCCN(CCO)CCCCCCCC(=O)OCCC(CCCCCC)CCCCCC [Compound 23],24 ± 3 nmol/g liver tissue
10,CCCCCCCCC(CCCCCCCC)OC(=O)CCCCCCCN(CCO)CCCCCCCC(=O)OCCC(CCCCC)CCCCC [Compound 24],3 ± 1 nmol/g liver tissue
11,CCCCCC(CCCCC)CCOC(=O)CCCCCCCN(CCO)CCCCCCCC(=O)OCCC(CCCCC)CCCCC [Compound 25],0.1 ± 0.04 nmol/g liver tissue
12,CCCCCCCCC(CCCCCCCC)OC(=O)CCCCCCCN(CCCCCCCC(=O)OCCC(CCCCCC)CCCCCC)CCCNc1c(NC)c(=O)c1=O [Compound 26],141 ± 15 nmol/g liver tissue
13,"CCCCCCCCC(CCCCCCCC)OC(=O)CCCCCCCN(CCCCCCCC(=O)OCCC(CCCC)CCCC)CCCNc1c(NC)c(=O)c1=O [Compound 27, 3-Butylheptyl 8-((8-(heptadecan-9-yloxy)-8-oxooctyl)(3-((2-(methylamino)-3,4-dioxocyclobut-1-en-1-yl)amino)propyl)amino)octanoate]",27 ± 4 nmol/g liver tissue
14,CCCCCCC(CCCCCC)CCOC(=O)CCCCCCCN(CCCCCCCC(=O)OCCC(CCCCCC)CCCCCC)CCCNc1c(NC)c(=O)c1=O [Compound 28],58 ± 7 nmol/g liver tissue
15,CCCCCCCCC(CCCCCCCC)OC(=O)CCCCCCCN(CCCCCCCC(=O)OCCC(CCCCC)CCCCC)CCCNc1c(NC)c(=O)c1=O [Compound 29],66 ± 16 nmol/g liver tissue
16,"CCCCCC(CCCCC)CCOC(=O)CCCCCCCN(CCCCCCCC(=O)OCCC(CCCCC)CCCCC)CCCNc1c(NC)c(=O)c1=O [Compound 30, Bis(3-pentyloctyl) 8,8′-((3-((2-(methylamino)-3,4-dioxocyclobut-1-en-1-yl)amino)propyl)azanediyl)dioctanoate]",25 ± 4 nmol/g liver tissue
17,CCCCCCCCC(CCCCCCCC)OC(=O)CCCCCCCN(CCO)CCCCCCCC(=O)OCCCC(CCCCC)CCCCC [Compound 31],2 ± 0.6 nmol/g liver tissue
18,CCCCCCCCC(CCCCCCCC)OC(=O)CCCCCCCN(CCCCCCCC(=O)OCCCC(CCCCC)CCCCC)CCCNc1c(NC)c(=O)c1=O [Compound 32],69 ± 17 nmol/g liver tissue
19,CCCCCC(CCCCC)CCCOC(=O)CCCCCCCN(CCO)CCCCCCCC(=O)OCCCC(CCCCC)CCCCC [Compound 33],0.5 ± 0.3 nmol/g liver tissue

row,SMILES,Parent Lipid Remaining at 24 h
1,CCCCCC(CCCCC)CCCOC(=O)CCCCCCCN(CCCCCCCC(=O)OCCCC(CCCCC)CCCCC)CCCNc1c(NC)c(=O)c1=O [Compound 34],12 ± 2 nmol/g liver tissue
2,CCCCCCCCC(CCCCCCCC)OC(=O)CCCCCCCN(CCO)CCCCCCCC(=O)OCCC1CCC(CC)CC1 (stereo not shown) [Compound 35],<0.1 nmol/g liver tissue
3,CCCCCCCCC(CCCCCCCC)OC(=O)CCCCCCCN(CCO)CCCCCCCC(=O)OCCC1CCC(CC)C1 (stereo not shown) [Compound 37],<0.1 nmol/g liver tissue
4,CCCCCCCCC(CCCCCCCC)OC(=O)CCCCCCCN(CCCCCCCC(=O)OCCC1CCC(CCC)CC1)CCCNc1c(NC)c(=O)c1=O (stereo not shown) [Compound 39],4 ± 1 nmol/g liver tissue
5,CCCCCCCCC(CCCCCCCC)OC(=O)CCCCCCCN(CCCCCCCC(=O)OCCC1CCC(CC)C1)CCCNc1c(NC)c(=O)c1=O (stereo not shown) [Compound 40],3 ± 0.3 nmol/g liver tissue
6,CCCCCC(CCCCC)CCOC(=O)CCCCCCCN(CCCCCCCC(=O)OCCC(CCC)CCC)CCCNc1c(NC)c(=O)c1=O [Compound 51],4 ± 0.6 nmol/g liver tissue
7,CCCCC(CCCC)CCOC(=O)CCCCCCCN(CCCCCCCC(=O)OCCC(CCC)CCC)CCCNc1c(NC)c(=O)c1=O [Compound 52],<1 nmol/g liver tissue
8,CCCC(CCC)CCOC(=O)CCCCCCCN(CCCCCCCC(=O)OCCC(CCC)CCC)CCCNc1c(NC)c(=O)c1=O [Compound 53],<1 nmol/g liver tissue
9,"CCCCCC(CCCCC)CCOC(=O)CCCCCCCN(CCCCCCCC(=O)OCCC(CCCC)CCCC)CCCNc1c(NC)c(=O)c1=O [Compound 54, 3-Butylheptyl 8-((3-((2-(methylamino)-3,4-dioxocyclobut-1-en-1-yl)amino)propyl)(8-oxo-8-((3-pentyloctyl)oxy)octyl)amino)octanoate]",12 ± 1 nmol/g liver tissue
10,CCCCCC(CCCCC)CCOC(=O)CCCCCCCN(CCCCCCCC(=O)OC(CCCCC)CCCCC)CCCNc1c(NC)c(=O)c1=O [Compound 57],12 ± 1 nmol/g liver tissue
11,CCCCCC(CCCCC)CCOC(=O)CCCCCCCN(CCCCCCCC(=O)OC(CCCC)CCCC)CCCNc1c(NC)c(=O)c1=O [Compound 58],15 ± 2 nmol/g liver tissue
12,CCCCCCC(CCCCCC)OC(=O)CCCCCCCN(CCCCCCCC(=O)OCCC(CCCC)CCCC)CCCNc1c(NC)c(=O)c1=O [Compound 60],8.5 ± 0.6 nmol/g liver tissue
13,CCCCCC(CCCCC)OC(=O)CCCCCCCN(CCCCCCCC(=O)OCCC(CCCC)CCCC)CCCNc1c(NC)c(=O)c1=O [Compound 61],5.1 ± 0.8 nmol/g liver tissue
14,CCCCC(CCCC)CCOC(=O)CCCCCCCN(CCCCCCCC(=O)OC(CCCC)CCCC)CCCNc1c(NC)c(=O)c1=O [Compound 62],1.8 ± 0.6 nmol/g liver tissue
15,CCCCCCCC(CCCCCCC)OC(=O)CCCCCCCN(CCCCCCCC(=O)OCCC(CCC)CCC)CCCNc1c(NC)c(=O)c1=O [Compound 63],8.9 ± 2.8 nmol/g liver tissue
16,CCCCCCC(CCCCCC)OC(=O)CCCCCCCN(CCCCCCCC(=O)OCCC(CCC)CCC)CCCNc1c(NC)c(=O)c1=O [Compound 64],4.9 ± 0.9 nmol/g liver tissue
17,CCCCCC(CCCCC)OC(=O)CCCCCCCN(CCCCCCCC(=O)OCCC(CCC)CCC)CCCNc1c(NC)c(=O)c1=O [Compound 65],0.9 ± 0.3 nmol/g liver tissue
18,CCCCC(CCCC)OC(=O)CCCCCCCN(CCCCCCCC(=O)OCCC(CCC)CCC)CCCNc1c(NC)c(=O)c1=O [Compound 66],0.1 ± 0.03 nmol/g liver tissue
